We go through 13 compounds from US20240010913A1, “RED FLUORESCENT SENSOR COMPOUNDS FOR THE DETECTION OF METAL IONS” (FEMTONICS KFT., priority 2020, published 2024).

Molecules are shown by their SMILES. Entries after “also recorded” stand apart in the source; their conditions may differ.

A short description of series [1]: Fluorescent spectra in the presence of various Zn ion concentration (Zn-titration). The series is classed as physicochemical. The settings on record: 0.1 M HEPES buffer pH 7.4. The method, then: (§1) Fluorescent spectra were recorded on an FLS920 Fluorescence Spectrometer from Edinburgh Instrument. A quartz cuvette with 3 mL volume and 1 cm length was used. Absorption spectra were recorded on a ThermoFisher NanoDrop 1000 Spectrophotometer. The two-photon measurements were performed on the custom Femtonics Dobos Dual system using a water immersion lens, a Mai Tai High-Power laser operated at 50 mW. For processing the images, ImageJ software was used.
FIG. 1. Fluorescence spectra of compound 28 pH 7.4 (0.1 M) HEPES buffer containing different amounts of Zn^2+. Values are not normalized, spectra were recorded at the maximum excitation wavelength.
FIG. 5. Fluorescence spectra of the compound of 29 in 0.1 M HEPES buffer (pH 7.4) containing different amounts of Zn^2+.
FIG. 7. Fluorescence spectra of the compound of 31 in pH 7.4 (0.1 M) HEPES buffer containing different amounts of Zn^2+.
FIG. 9. Fluorescence spectra of the compound of 30 in pH 7.4 (0.1 M) HEPES buffer containing different amounts of Zn^2+ ion.

A short description of series [2]: UV-VIS absorption spectra. The class given is physicochemical. The procedure:
as §1

The nature of series [3]: Ion screening (fluorescence), Zn2+. The class given is physicochemical. The conditions noted are these: for selectivity towards Zn ion: vs Ca2+, Mg2+, Na+, K+, Fe3+, Cu2+, Sn2+, Cd2+, Pb2+.
Series [4] is described as follows: Solubility of the product (qualitative). The class given is physicochemical.
The nature of series [5]: Aqueous solution: fluorescence and colour on addition of aqueous 1 mM ZnCl2. The conditions noted are these: for colour of the aqueous solution / fluorescence of the solution upon irradiation: upon addition of aqueous 1 mM ZnCl2; for fluorescence of the aqueous solution: without Zn. The series is classed as physicochemical.
For series [6] the following is noted: cited from earlier work.
For series [7] the following is noted: cited from earlier work. The source holds these as a separate data set.
Series [8] can be described thus: Ion screening (fluorescence), Cd2+. The class given is physicochemical.
Series [9] is described as follows: Ion screening (fluorescence), Ca2+. The series is classed as physicochemical.
A short description of series [10]: Ion screening (fluorescence), Sn2+. The class given is physicochemical.

On to `CN(C)CCN(C)c1cccc2ccc(/C=C3\N=C(Nc4ccccc4)NC3=O)nc12` [compound 30, (Z)-5-((8-((2-(dimethylamino)ethyl)(methyl)amino)quinolin-2-yl)methylene)-2-(phenylamino)-3,5-dihydro-4H-imidazol-4-one], for which the maximum emitted wavelength result in series [1] was “around 555 nm”. For the same compound, in [2], the “UV spectra extends over” value is “over 500 nm” and the “UV spectra maximum wavelength” value is reported as “around 476 nm”. For the same compound, in series [3], the “fluorescence in ion screening” value is recorded as “strong green fluorescence”, the “fluorescence intensity in ion screening” value was “lower intensity” and the “selectivity towards Zn ion” value was “strong selectivity”. In addition, in [4], the “solubility in DMSO” value is reported as “Soluble”, the solubility in alcohols result is recorded as “Soluble” and the solubility in water result is given as “moderately soluble”. Further, in series [5], the “colour of the aqueous solution” value is reported as “colour gets brighter”, the “fluorescence of the solution upon irradiation” value was “emits fluorescence” and the “fluorescence of the aqueous solution” value is recorded as “emits no fluorescence”.

`Cc1cc(/C=N/c2cccc3cccnc23)c(O)c(CO)c1` [HQMP]: in series [6], the solubility / water-solubility entry is on record as “Poor water-solubility”.

For the compound `COc1cc(NS(=O)(=O)c2ccc(C)cc2)c2ncccc2c1` [TSQ, 6-methoxy-(8-p-toluenesulfonamido)quinoline], the solubility / water-solubility result in series [6] was “poor water-”.

For `Oc1cccc2cccnc12` [8-hydroxyquinoline], in [7], the specificity / selectivity entry was “low”.

On to `O=C1NC(Nc2ccccc2)=N/C1=C\c1ccc2cccc(O)c2n1` [compound 28, (Z)-5-((8-hydroxyquinolin-2-yl)methylene)-2-(phenylamino)-3,5-dihydro-4H-imidazol-4-one], for which, in series [1], the maximum emitted wavelength entry is recorded as “around 545 nm”. Besides, the “UV spectra maximum wavelength” value in series [2] is given as “around 472 nm”. The Stokes shift in [2] (between UV maximum and emission maximum) is reported as 73 nm. Also, in series [4], the “solubility in DMSO” value was “Soluble”, the solubility in alcohols result was “Soluble” and the solubility in water result is listed as “moderately soluble”. Also, in [5], the “colour of the aqueous solution” value is on record as “colour changes to yellow”, the “fluorescence of the solution upon irradiation” value was “emits fluorescence” and the “fluorescence of the aqueous solution” value is “emits no fluorescence”.

Regarding `CN(Cc1ccccn1)c1cccc2ccc(/C=C3\N=C(Nc4ccccc4)NC3=O)nc12` [compound 31, (Z)-5-((8-(methyl(pyridin-2-ylmethyl)amino)quinolin-2-yl)methylene)-2-(phenylamino)-3,5-dihydro-4H-imidazol-4-one], the maximum emitted wavelength result in [1] is given as “around 545 nm”. In series [2], the “UV spectra extends over” value is given as “over 500 nm” and the “UV spectra maximum wavelength” value is on record as “around 481 nm”. In [3], the Zn/Ca fluorescence ratio entry was “good”, the “fluorescence in ion screening” value is “strong green fluorescence” and the “selectivity towards Zn ion” value is reported as “good selectivity”. In series [4], the “solubility in DMSO” value is on record as “Soluble”, the solubility in alcohols result is on record as “Soluble” and the solubility in water entry is given as “moderately soluble”. In [5], the “colour of the aqueous solution” value is on record as “colour changes to yellow”, the “fluorescence of the solution upon irradiation” value was “emits fluorescence” and the “fluorescence of the aqueous solution” value was “emits no fluorescence”. In addition, the “selectivity against Cd2+” value in series [8] is recorded as “weak”.

Turning to `O=C1NC(Nc2ccccc2)=N/C1=C\c1ccc2ccc3cccnc3c2n1` [compound 34, (Z)-5-((1,10-phenanthrolin-2-yl)methylene)-2-(phenylamino)-3,5-dihydro-4H-imidazol-4-one], in [4], the “solubility in DMSO” value is “soluble”; the “solubility in THF” value was “Moderately soluble”; the “solubility in the mixture of DMSO and water” value is “soluble”.

Turning to `CCOC(=O)COc1cc(NS(=O)(=O)c2ccc(C)cc2)c2nc(C)ccc2c1` [Zinquin Ester], in series [6], the solubility / water-solubility entry is recorded as “weak solubility; also recorded: excitation, poor water-solubility”.

On to `O=C(O)CN(CC(=O)O)c1cccc2ccc(/C=C3\N=C(Nc4ccccc4)NC3=O)nc12` [compound 33, (Z)-2,2′-((2-((5-oxo-2-(phenylamino)-1,5-dihydro-4H-imidazol-4-ylidene)methyl)quinolin-8-yl)azanediyl)diacetic acid], for which, in [3], the “turn on in the presence of Zn2+” value was “does not turn on”. Besides, in series [9], the “fluorescence with Ca2+ ion” value is on record as “increased fluorescence intensity”. Besides, the “turn on by Sn2+” value in series [10] is listed as “turn on the sensor”.

On to `O=C(CNNC(=O)c1ccccc1)Nc1cccc2cccnc12` [QLNPY], for which the quenching entry in series [7] (by PPi and S^2−) is given as “quenched by PPi”. In addition, in series [7], the specificity / selectivity result is “not selective for Cd^2+”.

With `O=C1N=C(Nc2ccccc2)N/C1=C\c1ccc2ccc3ccc(/C=C4\NC(Nc5ccccc5)=NC4=O)nc3c2n1` [compound 35, (5Z,5′Z)-5,5′-((1,10-phenanthroline-2,9-diyl)bis(methanylylidene))bis(2-(phenylamino)-1,5-dihydro-4H-imidazol-4-one)], in series [4], the “solubility in DMSO” value is given as “soluble”; the “solubility in THF” value was “Moderately soluble”; the “solubility in the mixture of DMSO and water” value is “soluble”.

For `CN(C)c1cccc2ccc(/C=C3\N=C(Nc4ccccc4)NC3=O)nc12` [compound 29, (Z)-5-((8-(dimethylamino)quinolin-2-yl)methylene)-2-(phenylamino)-3,5-dihydro-4H-imidazol-4-one], the “UV spectra extends over” value in [2] is recorded as “over 500 nm”. In addition, in series [3], the Zn/Ca fluorescence ratio result is recorded as “excellent”, the “fluorescence in ion screening” value is “strong green fluorescence” and the “selectivity towards Zn ion” value is on record as “strong selectivity”. In addition, in [4], the “solubility in DMSO” value was “Soluble”, the solubility in alcohols result is listed as “Soluble” and the solubility in water result is “Soluble”. In series [5], the “colour of the aqueous solution” value was “colour changes to greenish”, the “fluorescence of the solution upon irradiation” value is recorded as “emits fluorescence” and the “fluorescence of the aqueous solution” value is “emits no fluorescence”.

On to `COc1cccc2ccc(/C=C3\N=C(Nc4ccccc4)NC3=O)nc12` [compound 32, (Z)-5-((8-methoxyquinolin-2-yl)methylene)-2-(phenylamino)-3,5-dihydro-4H-imidazol-4-onen], for which, in [4], the “solubility in DMSO” value is on record as “Soluble”, the solubility in alcohols entry is “Soluble” and the solubility in water entry is listed as “moderately soluble”. For the same compound, in series [5], the “colour of the aqueous solution” value is “colour changes to green”, the “fluorescence of the solution upon irradiation” value is reported as “emits fluorescence” and the “fluorescence of the aqueous solution” value is on record as “emits no fluorescence”.
